Experimental findings from patent publication US8569305B2, “Treatment of tuberous sclerosis associated neoplasms” (Emory University, priority 2002, dated 2013) are described below.

Entries after “also recorded” stand apart in the source; their conditions may differ.

One assay concerns Murine tsc2ang1 cells. Briefly: Inhibition of proliferation of tsc2ang1 cells by tyrosine kinase inhibitors (cell count). Format: cell-based. The following applies: for N number of living cells after 72 h treatment: Murine tsc2ang1 cells. The text has this: (§1) SV7tert (ATCC CRL 2461) is a cell line derived from a human angiomyolipoma through the sequential introduction of SV40 large T antigen and telomerase into primary human angiomyolipoma cells (Arbiser, J. L. et al. The generation and characterization of a cell line derived from a sporadic renal angiomyolipoma: use of telomerase to obtain stable populations of cells from benign neoplasms. Am.J.Pathol. 159, 483-491 (2001)). Angiomyolipomas are benign tumors of the kidney derived from putative perivascular epithelioid cells, that may undergo differentiation into cells with features of melanocytes, smooth muscle, and fat. Tsc2ang1 (ATCC CRL 2620) is a murine cell line derived from a cutaneous sarcoma arising in the extremity of a mouse heterozygous for tsc2. The sarcoma tissue was digested with collagenase and processed as described for SV7tert cells (Arbiser, J. L. et al.). Mice heterozygous for tsc2 develop cutaneous sarcomas at a frequency of approximately 10-15% (Onda, H., Lueck, A., Marks, P. W., Warren, H. B., & Kwiatkowski, D. J. Tsc2(+/−) mice develop tumors in multiple sites that express gelsolin and are influenced by genetic background. J.Clin Invest 104, 687-695 (1999)).
(§2) The following tyrosine kinase inhibitors were reconstituted as stock solutions in dimethyl sulfoxide (DMSO) immediately prior to use; AG9, AG17, AG18, AG30, AG82, AG99, AG112, AG370, AG490, AG879, AG957, AG1295, AG1296, AG1433, 2′thioadenosine, ST638, COMPOUND I, lavendustin C, oxindole 1, JAK3 inhibitors 1,2, and 3, as well as JAK3 inhibitor negative control. They can be obtained from Calbiochem (San Diego, Calif.). 10,000 cells per well in a 24 well dish were plated on day 1, and were treated with inhibitors in doses ranging from […] (LaMontagne Jr K. R. Jr et al. Inhibition of MAP kinase kinase causes morphological reversion and dissociation between soft agar growth and in vivo tumorigenesis in angiosarcoma cells; Am.J.Pathol. 157,1937-1945 (2000)). Cells were counted 72 hours after treatment with inhibitors using a Coulter Counter (Coulter, Hialeah,Fla.).

Assay [1] relates to Human SV7tert angiomyolipoma cells. Briefly: Inhibition of proliferation of SV7tert cells by tyrosine kinase inhibitors (cell count). Format: cell-based. The note with it: for sensitivity / growth inhibition of SV7tert cells (in words): Human SV7tert cells in vitro; for N number of living cells after 72 h treatment: Human SV7tert cells; for No. of Cells after 72 hours: SV7tert cells.
Description: as §1, §2

For assay [2], the system named is Akt phosphorylation in SV7tert cells. Put plainly: Akt phosphorylation in SV7tert cells after treatment. Format: cell-based, human. The note with it: after 24 hours of treatment.

Take `CC(C)(C)c1cc(C=C(C#N)C#N)cc(C(C)(C)C)c1O` [AG17, 3,5-di-tert-butyl-4-hydroxybenzylidene-malononitrile]: the “sensitivity / growth inhibition of tsc2ang1 cells (in words)” value in the assay with Murine tsc2ang1 cells (Murine tsc2ang1 cells in vitro) is on record as “hypersensitivity; also recorded: strongly inhibited”. In addition, the “N number of living cells after 72 h treatment” value (from here on “N number of living cells”) is given as 23 ×100 in the assay on Murine tsc2ang1 cells (concentration 10 μg/ml), 23 ×100 in the assay on Murine tsc2ang1 cells (concentration 20 μg/ml), 23 ×100 in assay [1] (concentration 10 μg/ml) and 22 ×100 in assay [1] (concentration 20 μg/ml). Besides, in assay [1], the “sensitivity / growth inhibition of SV7tert cells (in words)” value is given as “highest sensitivity; also recorded: strongly inhibited”.
Regarding `N#C/C(=C\c1ccc(O)c(O)c1)C(=O)O` [AG30], the “N number of living cells” value in assay [1] (concentration 10 μg/ml) is recorded as 250 ×100; in assay [1] (concentration 20 μg/ml), 270 ×100.
On to `COC(=O)c1ccc(NCc2cc(O)ccc2O)cc1` [AG957], for which the inhibition result in assay [1] (0.5 μg/ml, data not shown, cell line not stated in the sentence (SV7tert by context)) was “approximately 90%”. Besides, the “sensitivity / growth inhibition of SV7tert cells (in words)” value in assay [1] is “highest sensitivity”.
Take `COc1cc2ncnc(Nc3cccc(Cl)c3)c2cc1OC` [AG1478]: the results for the “N number of living cells” value in assay [1] (concentration 10 μg/ml) and in assay [1] (concentration 20 μg/ml) were 251 ×100 and 210 ×100, respectively.
As to `Cc1ccc(NC(=O)c2ccc(CN3CCN(C)CC3)cc2)cc1Nc1nccc(-c2cccnc2)n1` [COMPOUND I, N-{5-[4-(4-methyl-piperazino-methyl)-benzoylamido]-2-methylphenyl}-4-(3-pyridyl)-2-pyrimidine-amine], the “sensitivity / growth inhibition of SV7tert cells (in words)” value in assay [1] is “increased sensitivity to COMPOUND I compared to murine tsc2ang1”. For the same compound, the figures for the “No. of Cells after 72 hours” value in assay [1] (2 μg/ml (control 22450)), in assay [1] (5 μg/ml (control 22450)) and in assay [1] (10 μg/ml (control 22450)) were 16500, 10000 and 6500, respectively. The “Akt phosphorylation (in words)” value in assay [2] is recorded as “downregulation of Akt phosphorylation”.
With `CCOc1cc(/C=C(\C#N)C(N)=O)cc(CSc2ccccc2)c1O` [ST638], the “N number of living cells” value was 250 ×100 in assay [1] (concentration 10 μg/ml) and 205 ×100 in assay [1] (concentration 20 μg/ml).
